Measurements from ChEMBL document CHEMBL5550223, “Restoration of the Lost Human Beta Defensin-1 Protein in Cancer as a Strategy to Improve the Efficacy of Chemotherapy” (J Med Chem, 2024).
Calls of active or inactive are those of the source. No cut-off for these calls is given here. Positions of bridges follow the written chain, without caps; N, C: chain ends. Residues, ends and D or L forms follow the SMILES beside them.

Key:
LNCaP [1] = assay: Cytotoxicity against human LNCaP cells assessed as cell death measured by MTT assay; type: functional, cell-based
PC-3 [2] = assay: Cytotoxicity against human PC-3 cells assessed as cell death measured by MTT assay; type: functional, cell-based
DU-145 [3] = assay: Cytotoxicity against human DU-145 cells assessed as cell death measured by MTT assay; type: functional, cell-based
[4] = Cytotoxicity against human ABC-TC3995 cells assessed as cell death measured by MTT assay; type: functional, cell-based
[5] = Cytotoxicity against human iPSC cells assessed as cell death measured by MTT assay; type: functional, cell-based
MDA-MB-231 [6] = assay: Cytotoxicity against human MDA-MB-231 cells assessed as cell death measured by MTT assay; type: functional, cell-based
MDA-MB-231 [7] = assay: Activation of CD95 cell death pathway in Fas-resistant human MDA-MB-231 cells pretreated for 6 hrs followed by treated with anti-Fas antibody assessed as increase in CD95 expression measured after 24 hrs by FACS analysis; type: functional, cell-based
[8] = Cytotoxicity against human ABC-TC3995 cells assessed as cell death in presence of docetaxel measured by MTT assay; type: functional, cell-based
[9] = Cytotoxicity against human ABC-TC3995 cells assessed as cell death in presence of doxorubicin measured by MTT assay; type: functional, cell-based
MDA-MB-231 [10] = assay: Cytotoxicity against human MDA-MB-231 cells assessed as cell death in presence of doxorubicin measured by MTT assay; type: functional, cell-based
MDA-MB-231 [11] = assay: In vivo antitumor activity against human MDA-MB-231 cells expressing FLuc-EGFP fusion protein xenografted in NOD-SCID mouse assessed as tumor regression at 200 mg/kg, ip measured upto day 13 by optical imaging based assay relative to control; type: functional, organism-based; conditions: time 13.0 day
MDA-MB-231 [12] = assay: In vivo antitumor activity against human MDA-MB-231 cells expressing FLuc-EGFP fusion protein xenografted in NOD-SCID mouse assessed as loss of cellularity of tumor at 200 mg/kg, ip measured upto day 13 by H and E staining based assay; type: functional, organism-based
[13] = Cytotoxicity against human iPSC cells assessed as cell death in presence of docetaxel measured by MTT assay; type: functional, cell-based
MDA-MB-231 [14] = assay: Synergistic cytotoxicity against Fas-resistant human MDA-MB-231 cells assessed as cell death at 10 uM in presence of 1 to 3 ug/ml doxorubicin measured after 24 to 72 hrs by fluorescent microscopy; type: functional, cell-based; conditions: time 24-72 hrs
PC-3 [15] = assay: Cytotoxicity against human PC-3 cells assessed as cell death in presence of doxorubicin measured by MTT assay; type: functional, cell-based
DU-145 [16] = assay: Cytotoxicity against human DU-145 cells assessed as cell death in presence of doxorubicin measured by MTT assay; type: functional, cell-based
PC-3 [17] = assay: Cytotoxicity against human PC-3 cells assessed as dead cells at 60 uM measured after 24 to 72 hrs by FACS based Calcein A/EtBr-dimer LIVE/DEAD cell staining kit; type: functional; conditions: time 24-72 hrs
PC-3 [18] = assay: Cytotoxicity against human PC-3 cells assessed as dead cells measured after 24 to 72 hrs by FACS based Calcein A/EtBr-dimer LIVE/DEAD cell staining kit; type: functional
[19] = Toxicity in NOD-SCID mouse xenografted in human MDA-MB-231 cells assessed as kidney histology at 200 mg/kg, ip measured upto day 13 by H and E staining based assay; type: organism-based; conditions: in vivo, 312 h, time 13 day
MDA-MB-231 [20] = assay: Synergistic cytotoxicity against Fas-resistant human MDA-MB-231 cells assessed as cell death at 10 uM in presence of 3 ug/ml doxorubicin measured after 24 to 72 hrs by fluorescent microscopy; type: functional; conditions: time 24-72 hrs
[21] = Toxicity in NOD-SCID mouse xenografted in human MDA-MB-231 cells assessed as heart histology at 200 mg/kg, ip measured upto day 13 by H and E staining based assay; type: organism-based; conditions: in vivo
[22] = Cytotoxicity against human iPSC cells assessed as cell death in presence of doxorubicin measured by MTT assay; type: functional, cell-based
MDA-MB-231 [23] = assay: In vivo antitumor activity against human MDA-MB-231 cells expressing FLuc-EGFP fusion protein xenografted in NOD-SCID mouse assessed as tumor regression at 100 mg/kg, ip measured upto day 13 by optical imaging based assay relative to control; type: functional, organism-based; conditions: time 13.0 day
LNCaP [24] = assay: Cytotoxicity against human LNCaP cells assessed as cell death in presence of docetaxel measured by MTT assay; type: functional, cell-based
[25] = Toxicity in NOD-SCID mouse xenografted in human MDA-MB-231 cells assessed as liver histology at 200 mg/kg, ip measured upto day 13 by H and E staining based assay; type: organism-based; conditions: in vivo
PC-3 [26] = assay: Cytotoxicity against human PC-3 cells assessed as dead cells at 30 uM measured after 24 to 72 hrs by FACS based Calcein A/EtBr-dimer LIVE/DEAD cell staining kit; type: functional; conditions: time 24-72 hrs
MDA-MB-231 [27] = assay: In vivo antitumor activity against human MDA-MB-231 cells expressing FLuc-EGFP fusion protein xenografted in NOD-SCID mouse assessed as tumor regression at 50 mg/kg, ip measured upto day 13 by optical imaging based assay relative to control; type: functional, organism-based; conditions: time 13.0 day
DU-145 [28] = assay: Cytotoxicity against human DU-145 cells assessed as cell death in presence of docetaxel measured by MTT assay; type: functional, cell-based
PC-3 [29] = assay: Cytotoxicity against human PC-3 cells assessed as cell death in presence of docetaxel measured by MTT assay; type: functional, cell-based
LNCaP [30] = assay: Cytotoxicity against human LnCAP cells assessed as cell death in presence of doxorubicin measured by MTT assay; type: functional, cell-based
MDA-MB-231 [31] = assay: Cytotoxicity against human MDA-MB-231 cells assessed as cell death in presence of docetaxel measured by MTT assay; type: functional, cell-based

COc1cccc2c1C(=O)c1c(O)c3c(c(O)c1C2=O)C[C@@](O)(C(=O)CO)C[C@@H]3O[C@H]1C[C@H](N)[C@H](O)[C@H](C)O1 [DOXORUBICIN]
IC50 (LNCaP [1]): 1.07 µM | IC50 (PC-3 [2]): 17.5 µM | IC50 (DU-145 [3]): 12.4 µM | IC50 [4]: 12.5 µM | IC50 [5]: 6.8 µM | IC50 (MDA-MB-231 [6]): 46.5 µM

CC(=O)O[C@@]12CO[C@@H]1C[C@H](O)[C@@]1(C)C(=O)[C@H](O)C3=C(C)[C@@H](OC(=O)[C@H](O)[C@@H](NC(=O)OC(C)(C)C)c4ccccc4)C[C@@](O)([C@@H](OC(=O)c4ccccc4)[C@H]21)C3(C)C [DOCETAXEL ANHYDROUS]
IC50 (LNCaP [1]): 12.3 µM | IC50 (PC-3 [2]): 12.5 µM | IC50 (DU-145 [3]): 5.4 µM | IC50 [4]: 16.5 µM | IC50 [5]: 18.6 µM | IC50 (MDA-MB-231 [6]): 38.9 µM

CC[C@H](C)[C@H](NC(=O)[C@H](CCCCN)NC(=O)[C@@H](NC(=O)[C@H](Cc1ccccc1)NC(=O)[C@@H](NC(=O)[C@@H]1CCCN1C(=O)[C@H](CS)NC(=O)[C@H](C)NC(=O)[C@H](CO)NC(=O)[C@H](Cc1ccc(O)cc1)NC(=O)[C@H](CC(C)C)NC(=O)[C@H](CS)NC(=O)[C@H](CCC(N)=O)NC(=O)CNC(=O)CNC(=O)[C@H](CO)NC(=O)[C@H](CO)NC(=O)[C@@H](NC(=O)[C@H](CS)NC(=O)[C@H](CC(N)=O)NC(=O)[C@H](Cc1ccc(O)cc1)NC(=O)[C@H](Cc1c[nH]cn1)NC(=O)[C@@H](N)CC(=O)O)C(C)C)[C@@H](C)CC)[C@@H](C)O)C(=O)N[C@@H](CCC(N)=O)C(=O)NCC(=O)N[C@H](C(=O)N[C@@H](CS)C(=O)N[C@@H](Cc1ccc(O)cc1)C(=O)N[C@@H](CCCNC(=N)N)C(=O)NCC(=O)N[C@@H](CCCCN)C(=O)N[C@@H](C)C(=O)N[C@@H](CCCCN)C(=O)N[C@@H](CS)C(=O)N[C@@H](CS)C(=O)N[C@@H](CCCCN)C(=O)O)[C@@H](C)O (H-DHYNCVSSGGQCLYSACPIFTKIQGTCYRGKAKCCK-OH)
Activity (MDA-MB-231 [7]): inactive

CC[C@H](C)[C@@H]1NC(=O)[C@H](CCCCN)NC(=O)[C@H]([C@@H](C)O)NC(=O)[C@H](Cc2ccccc2)NC(=O)[C@H]([C@@H](C)CC)NC(=O)[C@@H]2CCCN2C(=O)[C@@H]2CSSC[C@@H]3NC(=O)[C@H](CCCCN)NC(=O)[C@H](C)NC(=O)[C@H](CCCCN)NC(=O)CNC(=O)[C@H](CCCNC(=N)N)NC(=O)[C@H](Cc4ccc(O)cc4)NC(=O)[C@H](CSSC[C@H](NC(=O)[C@H](CCC(N)=O)NC(=O)CNC(=O)CNC(=O)[C@H](CO)NC(=O)[C@H](CO)NC(=O)[C@H](C(C)C)NC(=O)[C@@H](NC(=O)[C@H](CC(N)=O)NC(=O)[C@H](Cc4ccc(O)cc4)NC(=O)[C@H](Cc4c[nH]cn4)NC(=O)[C@@H](N)CC(=O)O)CSSC[C@@H](C(=O)N[C@@H](CCCCN)C(=O)O)NC3=O)C(=O)N[C@@H](CC(C)C)C(=O)N[C@@H](Cc3ccc(O)cc3)C(=O)N[C@@H](CO)C(=O)N[C@@H](C)C(=O)N2)NC(=O)[C@H]([C@@H](C)O)NC(=O)CNC(=O)[C@H](CCC(N)=O)NC1=O (H-DHYNCVSSGGQCLYSACPIFTKIQGTCYRGKAKCCK-OH; disulfide 5-35, 12-27, 17-34)
IC50 [8]: 78.6 µM | IC50 [9]: 89.5 µM | IC50 (MDA-MB-231 [10]): 3.8 µM | Activity (MDA-MB-231 [11]): Active | Activity (MDA-MB-231 [12]): Active | IC50 (LNCaP [1]): 12.4 µM | IC50 [13]: 84.5 µM | Activity (MDA-MB-231 [14]): Active | IC50 (PC-3 [15]): 0.95 µM | IC50 (PC-3 [2]): 26.5 µM | IC50 (DU-145 [16]): 0.25 µM | Activity (PC-3 [17]): 97.2% | Activity (MDA-MB-231 [7]): Dose-Dependent Effect | IC50 (PC-3 [18]): 20 µM | Activity [19]: Non-Toxic | Activity (MDA-MB-231 [20]): >90% | Activity [21]: Non-Toxic | IC50 [22]: 94.5 µM | Activity (MDA-MB-231 [23]): Active | IC50 (LNCaP [24]): 0.15 µM | IC50 (DU-145 [3]): 5.8 µM | Activity [25]: Non-Toxic | Activity (PC-3 [26]): 63.4% | Activity (MDA-MB-231 [27]): inactive | IC50 [4]: > 250 µM | IC50 [5]: > 250 µM | IC50 (MDA-MB-231 [6]): 24.5 µM | IC50 (DU-145 [28]): 0.45 µM | IC50 (PC-3 [29]): 1.2 µM | IC50 (LNCaP [30]): 0.11 µM | IC50 (MDA-MB-231 [31]): 6.5 µM
